Reference: patent US7087373B2, “Methods for determining plasma free drug concentration by direct measurement of binding affinity of protease inhibitors to plasma proteins” (priority 2001, dated 2006)
Read-outs that look alike come from different tables or passages of the source. Each block holds one compound with its values, some of them ahead of it.

Columns and labels:
[1] = tested on: AAG (human α1-acid glycoprotein); test: Isothermal titration calorimetry (ITC) of PI binding to AAG; settings: for binding to AAG (titration profile): 80 μM PI into 12 μM, 1.45 mL of AAG; for Ka: binding to AAG, 37° C., 20 mM phosphate buffer, pH 7.4, average of duplicate experiments; for Ka to AAG: ITC, Table 2
Description: Briefly, the isothermal titration calorimetry (ITC) measurements are designed to obtain primarily the enthalpy of each complex formation and their stoichiometries. The heats of each reaction are determined by integration of the peaks observed. After the contribution from the heat of dilution of each injection is subtracted, the heat is plotted against the molar ratio of PIs to AAG. The binding constant (Ka), enthalpy of binding (ΔH^0), and stoichiometry (N) of the formation of complex are determined by fitting the binding isotherm against the binding equation using an independent binding model. Data analysis may be carried out with, for example, MicroCal ORIGN software, usually provided with the instrument.
Binding experiments were run using Isothermal Titration Calorimetry (ITC) to measure bound and unbound protease inhibitors.
Sample preparation: Solutions of AAG and its variants for ITC experiments were made up in 20 mM […] buffer, pH 7.4. All compounds were prepared as stock solution of 20 mM or 25 mM in DMSO and thereafter diluted to desired concentration in the same buffer. For all ITC experiments, the percentage of DMSO is below 1%.
ITC Experiments: The isothermal titration measurements of the binding of various PIs to AAG can be typically carried out at 37° C. using a VP-ITC titration calorimeter (MicroCal, Northampton, Mass.). The instrument was electrically calibrated by means of a standard electric pulse as recommended by the manufacturer. […] A 300 μL syringe was used for the titrant, mixing was effected by stirring this syringe at 300 rpm during equilibration and experiment. Typically after a preliminary 2 μL injection, 25 injections of 10 μL each were performed with a 250s interval between injections in a single titration. The reference cell of the calorimeter filled with water, acts as a thermal reference to the sample cell. […] All solutions were degassed before titrations to reduce the noise. The buffer contained 20 mM sodium phosphate, pH 7.4.
The area of each peak was integrated and corrected for the PI heat of dilution, which was estimated by a separate experiment by injecting the PI into the buffer. By fitting the titration curve with a nonlinear least-squares method, the enthalpy change ΔH^0, and the binding constant Ka of PI binding to AAG can be estimated with the assumption of an independent binding site model.
The values provided are the average of duplicate experiments. […] The ΔS^0 function was calculated from the standard thermodynamic relation ΔG^0=ΔH^0−TΔS^0.

HIV [2] = test: Cell-based anti-HIV assay (tetrazolium-based, Pauwels et al.) in the absence of AAG and in the presence of 1 mg/mL AAG; settings: change in experimental EC50, absence of AAG vs presence of 1 mg/mL AAG
Description: The values provided are the average of duplicate experiments. […] The standard free energies (ΔG^0) were obtained from the equation ΔG^0=−RT1nKa, in which the Ka is the binding constant at 37° C. The ΔS^0 function was calculated from the standard thermodynamic relation ΔG^0=ΔH^0−TΔS^0. […] Methods, 1988, 20(4), 309–21.

HIV [3] = settings: cited from earlier work
HIV [4] = settings: in vivo, Fischl et al.; extensive protein binding; cited from earlier work
HIV [5] = test: Antiviral assay in the absence of AAG (Table 2); assay type: cell-based; settings: Human immunodeficiency virus 1
Source text: In table below, a data table with the binding affinity of 3 PI's to AAG (Ka), their free drug concentrations, calculated IC50s, and calculated efficacy were extracted from the ITC results and compared to IC50s from an antiviral assay in the absence of AAG.

AAG = test: Calculation of IC50 in presence of AAG, free drug concentration and efficacy from ITC Ka; set-up: species or system human; settings: for Free drug Concentration: calculated from ITC results; for IC50: read-out: Predicted IC50 @ 1 mg/mL AAG, calculated from Ka and IC50 without AAG
Source text: The quantification of the concentration of protease inhibitor in free form maybe performed by direct measurement of binding affinity Kd using isothermal titration calorimetry; and calculating the concentration of protease inhibitor in free form using the formula:
[formula] where Pt and Lt, are total protein and drug concentrations, and Kd is the equilibrium dissociation constant obtained in step (iii).
[formula] where PL is the protein-bound concentration of PIs, L0 and P0 are the total concentration of PIs and plasma protein, Kα and n are the binding constants and number of binding sites, respectively.
The quantification of the antiviral activity or EC50 value of a protease inhibitor in the presence of at least one plasma protein may be performed by direct measurement of binding affinity Ka using isothermal titration calorimetry; and calculating the antiviral activity or EC50 value of the protease inhibitor using the formula: […]
The quantification of the in vivo efficacy of a protease inhibitor in human plasma may be performed by direct measurement of binding affinity Ka using isothermal titration calorimetry; calculating the concentration of protease inhibitor in free form using the formulas described above; and calculating the in vivo efficacy of the protease inhibitor in human plasma using the formula: […]

[6] = antiviral assay in the absence of AAG, read-out: IC50

Structure (SMILES): CC(C)CN(C[C@@H](O)[C@H](Cc1ccccc1)NC(=O)O[C@H]1CCOC1)S(=O)(=O)c1ccc(N)cc1 [APV, amprenavir]
binding to AAG (titration profile) [1]: binds to AAG accompanied with an exothermic heat effect

Structure (SMILES): CC(C)(C)NC(=O)[C@@H]1CN(Cc2cccnc2)CCN1C[C@@H](O)C[C@@H](Cc1ccccc1)C(=O)N[C@H]1c2ccccc2C[C@H]1O [IDV, indinavir]
binding to AAG (titration profile) [1]: does not bind to AAG | Ka [1]: No binding | Fold Inc. EC50 (HIV [2]): 1.0

Ka [1]: 1.55 ± 0.49 10^6M^−1 | Fold Inc. EC50 (HIV [2]): 18.9
Structure (SMILES): CC(C)c1nc(CN(C)C(=O)N[C@H](C(=O)N[C@@H](Cc2ccccc2)C[C@H](O)[C@H](Cc2ccccc2)NC(=O)OCc2cncs2)C(C)C)cs1 [RTV, ritonavir]

Ka [1]: 2.35 ± 0.42 10^6M^−1 | Fold Inc. EC50 (HIV [2]): 22.9
Structure (SMILES): Cc1c(O)cccc1C(=O)N[C@@H](CSc1ccccc1)[C@H](O)CN1C[C@H]2CCCC[C@H]2C[C@H]1C(=O)NC(C)(C)C [NFV, nelfinavir]

Structure (SMILES): CC(C)CN(C[C@@H](O)[C@H](Cc1ccccc1)NC(=O)[C@H](CC(N)=O)NC(=O)c1ccc2ccccc2n1)C(=O)NC(C)(C)C [SC-52151, telinavir]
Ka [1]: 2.38 ± 0.60 10^6M^−1 | Fold Inc. EC50 (HIV [2]): 29.2 | antiretroviral activity in vitro (HIV [3]; Fischl et al.): potent | clinical efficacy (HIV [4]): lack of clinical efficacy

IC50 (HIV [5]; [6]): 0.5 nM | Ka to AAG [1]: 1.24E+06 | Free drug Concentration (AAG): 1710 nM | IC50 (AAG): 8.25 nM
Structure (SMILES): COc1ccc(S(=O)(=O)N(CC(C)C)C[C@@H](O)[C@H](Cc2ccccc2)NC(=O)OC2CO[C@H]3OCC[C@@H]23)cc1 (some centres unmarked) [Compound number 3]

Structure (SMILES): CC(C)CN(C[C@@H](O)[C@H](Cc1ccccc1)NC(=O)OC1CO[C@H]2OCC[C@@H]12)S(=O)(=O)c1ccc(N)cc1 (some centres unmarked) [Compound number 1]
IC50 (HIV [5]): 3 nM | Ka to AAG [1]: 1.92E+06 | Free drug Concentration (AAG): 1300 nM | IC50 (AAG): 74.6 nM

Structure (SMILES): CC(C)[C@H](NC(=O)N(C)Cc1ccccn1)C(=O)N[C@@H](Cc1ccccc1)[C@H](O)[C@H](O)[C@H](Cc1ccccc1)NC(=O)[C@@H](NC(=O)N(C)Cc1ccccn1)C(C)C [A77003]
antiviral efficacy as the concentration of AAG was increased (HIV [3]; in vitro, Bilello et al.): decreased

Ka [1]: 5.77 ± 0.72 10^6M^−1 | Fold Inc. EC50 (HIV [2]): 37.1
Structure (SMILES): Cc1cccc(C)c1OCC(=O)N[C@@H](Cc1ccccc1)[C@@H](O)C[C@H](Cc1ccccc1)NC(=O)[C@H](C(C)C)N1CCCNC1=O [LPV, lopinavir]

IC50 (HIV [5]; [6]): 0.8 nM | Ka to AAG [1]: 2.19E+06 | Free drug Concentration (AAG): 1190 nM | IC50 (AAG): 22.7 nM
Structure (SMILES): CC(C)CN(C[C@@H](O)[C@H](Cc1ccccc1)NC(=O)O[C@H]1CO[C@H]2OCC[C@H]21)S(=O)(=O)c1ccc2c(c1)OCO2 [Compound number 2]

Structure (SMILES): CC(C)(C)NC(=O)[C@@H]1C[C@@H]2CCCC[C@@H]2CN1C[C@@H](O)[C@H](Cc1ccccc1)NC(=O)[C@H](CC(N)=O)NC(=O)c1ccc2ccccc2n1 [SQV, saquinavir]
Ka [1]: 0.34 ± 0.12 10^6M^−1 | Fold Inc. EC50 (HIV [2]): 5.6
